Test results published in patent US20070054887A1, “Methods for treating bladder dysfunction” (BioXell S.p.A, priority 2003, published 2007).

What was measured:
hBC = assay: androgen-stimulated hBC growth, 48 h incubation; assay type: cell-based, human; conditions: DHT 10 nM, Compound A 1 nM, finasteride 1 nM, FIG. 5
Text: Results are expressed as percentage variation (mean±SEM) over their relative controls and derived from at least three different experiments obtained from three distinct hBC cell preparations. *P<0.05 (vs. control); °P<0.01 (vs. androgen-treated cells).

desmin = desmin gene and protein expression in serum-starved hBC; assay type: cell-based, human; conditions: 10 nM
Description: To detect desmin both at gene or protein level hBC cells were seeded in their growth medium onto 10 mm diameter culture dishes or onto sterile glass slides (about 10^4 cells/ml), for mRNA or immunocytochemical analysis, respectively. hBC cells at about 30% confluency, after overnight starvation in serum-free medium were incubated in phenol red- and serum-free medium containing 0.1% BSA with or without Compound A (10^−8 M) for 2, 4, 8 and 12 days, and the medium was changed every 2 days. Cells were harvested for mRNA or protein analysis by Taqman or Western blot analysis, respectively, and the slides were processed for specific protein immunocytochemical detection Quantitative analysis using real-time RT-PCR of desmin mRNA expression in serum-starved hBC treated with Compound A (10 nM, grey columns) was examined at different time points (2-12 days). Results are derived from five different experiments from three distinct hBC preparations and are expressed as fold increase compared to time zero. *P≦0.01 or °P=0.04 vs. control, open columns and are shown in FIG. 8.
Western blot detection of desmin in hBC was conducted as follows: thirty μg of proteins were separated by 10% SDS-PAGE, transferred onto nitrocellulose membrane, and probed with anti-desmin antibody (1:1000). A band of about 58 kDa was detected in each sample of hBC. […]

[1] = maximum tolerated dose (MTD) in rats; assay type: in vivo; conditions: rat, in vivo, read-out: MTD
Text: The maximum tolerated dose (MTD) in rats is also listed for each compound.

[2] = test system: rats with CYP-induced cystitis; assay: cyclophosphamide (CYP) induced chronic cystitis in rats: conscious cystometry; assay type: in vivo, Wistar rats; conditions: 30 and 75 ug/kg, control v Comp A

SMILES: C=C1/C(=C\C=C2/CCC[C@]3(C)C([C@@H](C)C/C=C/C(O)(CC)CC)=CC[C@@H]23)C[C@@H](O)C[C@@H]1F [Compound A, 1-alpha-fluoro-25-hydroxy-16,23E-diene-26,27-bishomo-20-epi-cholecalciferol]
- hBC proliferation stimulated by the androgen DHT (hBC): inhibits
- desmin protein expression (Western blot) (desmin; at any time point tested (2-12 days), FIG. 9): decreased
- serum starvation-induced progressive increase in desmin expression (desmin; mRNA and protein, FIGS. 8-11): almost completely counteracted
- MTD [1]: 0.1 mg/kg
- bladder capacity ([2]; FIG. 23): increase
- non-voiding bladder contractions ([2]; FIG. 24): decrease
